From patent publication US9380783B2, “Herbicidal composition” (priority 2012, dated 2016) come the findings set out here.

Holding throughout (format): in vivo
Experiment [1] has as its system ivy-leaved morningglory (Ipomoea hederacea (L.) Jacq.). In words: Test Example 7: soil treatment, ivy-leaved morningglory pot test. Particulars: read-out: Growth inhibition rate of ivy-leaved morningglory (%) Measured value. As to the method: Upland field soil was put into a 1/300,000 ha pot, and seeds of ivy-leaved morningglory (Ipomoea hederacea (L.) Jacq.) were sown. On the next day, predetermined amounts of the above formulations respectively containing nicosulfuron, prosulfuron and bicyclopyrone were diluted with water (in an amount corresponding to 1,000 L/ha) and applied for soil treatment by a small sprayer.

In experiment [2] the test system is prickly sida (Sida spinosa L.). In words: Test Example 4: soil treatment, prickly sida pot test. Particulars: read-out: Growth inhibition rate of prickly sida (%) Measured value. As for the experimental part: Upland field soil was put into a 1/300,000 ha pot, and seeds of prickly sida (Sida spinosa L.) were sown. On the next day, predetermined amounts of the above formulations respectively containing nicosulfuron, prosulfuron, dicamba and bicyclopyrone were diluted with water (in an amount corresponding to 1,000 L/ha) and applied for soil treatment by a small sprayer.

In experiment [3] the test system is velvetleaf (Abutilon theophrasti Medic.). In words: Test Example 11: foliar treatment, velvetleaf pot test. Particulars: read-out: Growth inhibition rate of velvetleaf (%) Measured value. As to the method: Upland field soil was put into a 1/1,000,000 ha pot, and seeds of velvetleaf (Abutilon theophrasti Medic.) were sown. When the velvetleaf reached 5.0 to 5.3-leaf stage, predetermined amounts of the above formations respectively containing nicosulfuron, prosulfuron, dicamba, bromoxynil-octanoate and bicyclopyrone were diluted with water (in an amount corresponding to 300 L/ha) and applied for foliar treatment by a small sprayer.

Experiment [4] has as its system korean lespedeza (Kummerowia stipulacea (Maxim.) Makino). Briefly: Test Example 8: soil treatment, korean lespedeza pot test. Particulars: read-out: Growth inhibition rate of korean lespedeza (%) Measured Value. As to the method: Upland field soil was put into a 1/300,000 ha pot, and seeds of korean lespedeza (Kummerowia stipulacea (Maxim.) Makino) were sown. On the next day, predetermined amounts of the above formulations respectively containing nicosulfuron, prosulfuron and bicyclopyrone were diluted with water (in an amount corresponding to 1,000 L/ha) and applied for soil treatment by a small sprayer.

The subject of experiment [5] is annual ragweed (Ambrosia artemisiifolia L.). In words: Test Example 6: soil treatment, annual ragweed pot test. Particulars: 28th day after treatment, read-out: Growth inhibition rate of annual ragweed (%) Measured value. As for the experimental part:
Upland field soil was put into a 1/300,000 ha pot, and seeds of annual ragweed (Ambrosia artemisiifolia L.) were sown. On the next day, predetermined amounts of the above formulations respectively containing nicosulfuron, prosulfuron and bromoxynil-octanoate were diluted with water (in an amount corresponding to 1,000 L/ha) and applied for soil treatment by a small sprayer.

For experiment [6], the system named is black nightshade (Solanum nigrum L.). In words: Test Example 5: soil treatment, black nightshade pot test. The following applies: 28th day after treatment, read-out: Growth inhibition rate of black nightshade (%) Measured value. An excerpt:
Upland field soil was put into a 1/300,000 ha pot, and seeds of black nightshade (Solanum nigrum L.) were sown. […] On the 28th day after treatment, the state of growth of the black nightshade was visually observed to determine the growth inhibition rate (%).

Experiment [7] relates to common lespedeza (Lespedeza striata (Thunb.) Hook. et Arn.). Briefly: Test Example 10: foliar treatment, common lespedeza pot test. The following applies: Kummerowia striata, foliar treatment at 4.0-leaf stage, 14th day after treatment, read-out: Growth inhibition rate of common lespedeza (%) Measured value. As to the method: Upland field soil was put into a 1/1,000,000 ha pot, and seeds of common lespedeza (Lespedeza striata (Thunb.) Hook. et Arn.) were sown. When the common lespedeza reached 4.0-leaf stage, predetermined amounts of the above formulations respectively containing nicosulfuron, prosulfuron and dicamba were diluted with water (in an amount corresponding to 300 L/ha) and applied for foliar treatment by a small sprayer.

In experiment [8] the test system is wild oat (Avena fatua L.). In words: Test Example 3: soil treatment, wild oat pot test. The following applies: 28th day after treatment, read-out: Growth inhibition rate of wild oat (%) Measured value. The text has this:
(§1) Upland field soil was put into a 1/300,000 ha pot, and seeds of wild oat (Avena fatua L.) were sown. […] On the 28th day after treatment, the state of growth of the wild oat was visually observed to determine the growth inhibition rate (%).

Experiment [9] concerns wild oat (Avena fatua L.). In words: Test Example 2: soil treatment, wild oat pot test. The following applies: 28th day after treatment, read-out: Growth inhibition rate of wild oat (%) Measured value.
Description: as §1

For experiment [10], the system named is annual ragweed (Ambrosia artemisiifolia L.). In words: Test Example 9: foliar treatment, annual ragweed pot test. The following applies: foliar treatment at 6.0 to 8.0-leaf stage, 14th day after treatment, read-out: Growth inhibition rate of annual ragweed (%) Measured value. As to the method:
Upland field soil was put into a 1/1,000,000 ha pot, and seeds of annual ragweed (Ambrosia artemisiifolia L.) were sown. When the annual ragweed reached 6.0 to 8.0-leaf stage, predetermined amounts of the above formulations respectively containing nicosulfuron, prosulfuron and mesotrione were diluted with water (in an amount corresponding to 300 L/ha) and applied for foliar treatment by a small sprayer.
On the 14th day after treatment, the state of growth of the annual ragweed was visually observed to determine the growth inhibition rate (%). The growth inhibition rate (%) (measured value) and the growth inhibition rate (%) calculated in the same manner as in the above Test Example 1 are shown in Table 9.

Experiment [11] relates to sunn-hemp (Crotalaria juncea L.). In words: Test Example 1: soil treatment, sunn-hemp pot test. The following applies: 28th day after treatment, read-out: Growth inhibition rate of sunn-hemp (%) Measured value. An excerpt:
On the 28th day after treatment, the state of growth of the sunn-hemp was visually observed to determine the growth inhibition rate (%) in accordance with the following evaluation standard. The growth inhibition rate (%) (measured value) and the growth inhibition rate (%) (calculated value) calculated by the Colby's formula are shown in Table 1.

Setting [12] is: soil treatment, 28th day after treatment.
[13] abbreviates: dose 100 g/ha, soil treatment, 28th day after treatment.
The mark [14] stands for this setting: dose 2.5 g/ha, soil treatment, 28th day after treatment.

As for `COCCOCc1nc(C(F)(F)F)ccc1C(=O)C1=C(O)C2CCC(C2)C1=O` (centres unmarked) [Bicyclopyrone, 4-hydroxy-3-{2-[(2-methoxyethoxy)methyl]-6-(trifluoromethyl)-3-pyridylcarbonyl}bicyclo[3.2.1]oct-3-en-2-one], the inhibition (as a rule, the drop in the measured response relative to a control, in per cent) at 25 g/ha came out at 5% in experiment [1] (soil) and 25% in [2] (soil). In addition, the values for the inhibition at 400 g/ha in [1] (soil) and in [4] (soil) were 25% and 78%, respectively. For the same molecule, the inhibition at 100 g/ha in [3] (foliar) turned out to be 40%.

As to `CCCCCCCC(=O)Oc1c(Br)cc(C#N)cc1Br` [Bromoxynil-octanoate, bromoxynil-octanoate], the inhibition at 100 g/ha in experiment [5] and in [6] (dose 100 g/ha) was 0% each time. The inhibition at 200 g/ha in experiment [5] (dose 200 g/ha) came out at 0%; in [3] (dose 200 g/ha, foliar treatment at 5.0 to 5.3-leaf stage, 20th day after treatment), 5%. In addition, the inhibition at 500 g/ha in [5] (dose 500 g/ha) and in experiment [6] (dose 500 g/ha) was 0% throughout.

For the molecule `COc1c(Cl)ccc(Cl)c1C(=O)O` [Dicamba, dicamba], the inhibition at 50 g/ha in [2] (setting [12]) is 0%. The inhibition at 150 g/ha in experiment [2] (dose 150 g/ha, soil treatment, 28th day after treatment) was 20%; in experiment [7] (dose 150 g/ha), 50%; in experiment [3] (dose 150 g/ha, foliar treatment at 5.0 to 5.3-leaf stage, 20th day after treatment), 8%. In [2] (dose 400 g/ha, soil treatment, 28th day after treatment), the inhibition at 400 g/ha stood at 40%. The inhibition at 100 g/ha in experiment [7] (dose 100 g/ha) came to 23%.

For the molecule `CS(=O)(=O)c1ccc(C(=O)C2C(=O)CCCC2=O)c([N+](=O)[O-])c1` [Mesotrione, 2-(4-mesyl-2-nitrobenzoyl)cyclohexane-1,3-dione], in [8] (dose 50 g/ha), the inhibition at 50 g/ha was found to be 0%. Moreover, the inhibition at 25 g/ha in experiment [9] (dose 25 g/ha) was 0%. Further, the inhibition at 150 g/ha amounted to 0% in experiment [9] (dose 150 g/ha) and 30% in experiment [11] (dose 150 g/ha). For the same molecule, the inhibition at 75 g/ha in experiment [10] (dose 75 g/ha) was 25%.

On to `COc1cc(OC)nc(NC(=O)NS(=O)(=O)c2ncccc2C(=O)N(C)C)n1` [Nicosulfuron, 2-(4,6-dimethoxypyrimidin-2-ylcarbamoylsulfamoyl)-N,N-dimethylnicotinamide], for which the inhibition at 30 g/ha in [8] (dose 30 g/ha) is 70%; in experiment [2] (dose 30 g/ha, soil treatment, 28th day after treatment) it was 10%; in experiment [5] (dose 30 g/ha) it was 0%; in experiment [10] (dose 30 g/ha), 0%; in [7] (dose 30 g/ha), 5%. The inhibition at 100 g/ha in experiment [9] (dose 100 g/ha) was 80%; in [2] (setting [13]), 20%; in [5], 0%; in experiment [4] (setting [13]), 30%. In addition, the inhibition at 10 g/ha in experiment [1] (dose 10 g/ha, soil treatment, 14th day after treatment) was determined as 0%; in experiment [2] (dose 10 g/ha, soil treatment, 28th day after treatment), 10%; in experiment [6] (dose 10 g/ha), 20%; in experiment [11] (dose 10 g/ha) it was 30%.

For `COc1nc(C)nc(NC(=O)NS(=O)(=O)c2ccccc2CCC(F)(F)F)n1` [Prosulfuron, 1-(4-methoxy-6-methyl-1,3,5-triazin-2-yl)-3-[2-(3,3,3-trifluoropropyl)phenylsulfonyl]urea], the inhibition at 15 g/ha turned out to be 0% in experiment [8] (dose 15 g/ha); 20% in experiment [2] (dose 15 g/ha, soil treatment, 28th day after treatment); 93% in [5] (dose 15 g/ha); 53% in experiment [10] (dose 15 g/ha); 13% in [7] (dose 15 g/ha). Moreover, the inhibition at 2.5 g/ha was found to be 0% in experiment [9] (dose 2.5 g/ha), 20% in experiment [2] (setting [14]), 78% in [5] (dose 2.5 g/ha) and 50% in experiment [4] (setting [14]). Moreover, the inhibition at 50 g/ha in experiment [1] (dose 50 g/ha, soil treatment, 14th day after treatment) is 50%; in experiment [2] (setting [12]), 40%; in experiment [6] (dose 50 g/ha), 20%; in [11] (dose 50 g/ha) it was 60%. The inhibition at 10 g/ha in [10] (dose 10 g/ha) turned out to be 55%; in experiment [7] (dose 10 g/ha) it was 10%.
